Assay results from PMC5974420, “Isospecific adenine DNA methyltransferases show distinct preferences towards DNA substrates” (Scientific Reports, 2018).

B1: M.EcoVIII (Escherichia coli) (protein)
chain: MLNKIQLPDEIKKNTVTNGNSISLIKKLPSQYAHLILSDIPYGIGAEDWDVLHNNSNNAYLGSSPAQKNAGAIFKKRGKPINGWSEADKKIPLEYQQWCEEWATEWFRVLKPGASAIIFAGRRFSHRCICAMEDAGFNLRDIIAWMRVKAPHRAQRLSCVYERRGDTLNAEKWNGWRVGNLQPTFEPILWFSKPYKIGGTIADNAIIHGVGAYNQDAFVARNGKPENVITAGFSSNESGLHPTQKPVALMKTLIELTTQKGQLVIDPFSGSGSTLVAAKDLGRDYIGFEINPTYVETSIKRLNK

Columns and labels:
M.HindIII = biological target: T1, M.HindIII (Haemophilus influenzae, UniProt P43871); details: 0.2 µM [methyl-3H]SAM, 0.15 µM ds oligo (AAGCTT site), 10 mM Tris-HCl pH 7.0, 37 °C, 1 h; labelled compound
T1 construct: gene hindIIIM

M.LlaCI = biological target: T2, M.LlaCI (Lactococcus lactis, UniProt O86267); assay: radiometric [3H]methyl transfer to DNA; format: biochemical; details: 0.2 µM [methyl-3H]SAM, 0.15 µM ds oligo (AAGCTT site), 10 mM Tris-HCl pH 7.0, 37 °C, 1 h; labelled compound
T2 construct: gene mllaci

purified protein = substrate: C[S+](CC[C@H](N)C(=O)O)C[C@H]1O[C@@H](n2cnc3c(N)ncnc32)[C@H](O)[C@@H]1O; assay: purified protein; details: 10 µM unmethylated ds oligo AAGCTT1/AAGCTT2 (AAGCTT site), 10 mM Tris-HCl pH 7.0, 37 °C, 5 min, 135 nM enzyme, labelled compound

T2 sequence (O86267 1-296): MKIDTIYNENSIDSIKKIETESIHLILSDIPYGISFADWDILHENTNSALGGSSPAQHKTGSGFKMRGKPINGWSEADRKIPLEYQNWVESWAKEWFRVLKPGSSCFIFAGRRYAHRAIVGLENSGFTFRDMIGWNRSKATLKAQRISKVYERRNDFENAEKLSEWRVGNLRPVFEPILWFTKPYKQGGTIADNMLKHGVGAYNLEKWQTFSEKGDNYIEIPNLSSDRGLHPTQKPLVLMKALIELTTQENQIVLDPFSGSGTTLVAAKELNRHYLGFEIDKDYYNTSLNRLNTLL
T1 sequence (P43871 whole entry): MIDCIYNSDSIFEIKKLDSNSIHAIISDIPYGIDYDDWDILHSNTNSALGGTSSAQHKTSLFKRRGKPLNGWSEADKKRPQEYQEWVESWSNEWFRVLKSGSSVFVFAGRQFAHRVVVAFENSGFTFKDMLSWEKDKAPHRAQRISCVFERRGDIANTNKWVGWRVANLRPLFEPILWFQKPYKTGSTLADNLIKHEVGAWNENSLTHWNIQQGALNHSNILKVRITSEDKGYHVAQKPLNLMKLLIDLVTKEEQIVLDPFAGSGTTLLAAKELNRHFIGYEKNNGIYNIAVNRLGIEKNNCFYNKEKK

Row | Molecule | radiometric [3H]methyl transfer to DNA (M.HindIII) | radiometric [3H]methyl transfer to DNA (M.LlaCI) | Km (purified protein) [µM]
1 | C[S+](CC[C@H](N)C(=O)O)C[C@H]1O[C@@H](n2cnc3c(N)ncnc32)[C@H](O)[C@@H]1O (stereo partly drawn) [AdoMet] | monitoring transfer of the radioactively labelled methyl groups from [^3H]AdoMet to DNA | monitoring transfer of the radioactively labelled methyl groups from [^3H]AdoMet to DNA | 
2 | B1 |  |  | 0.27 ± 0.006
